# Assays:
# Assay in all cases: KINOMEscan kinase binding assay
# [1] = tested on: SRC; details: at 1 μM
# Summary of the method: (§1)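 Steps: biotinylated ligand loaded onto streptavidin beads (30 min RT), then biotin-blocked; kinase, beads and compound combined in SeaBlock/PBS/Tween/DTT buffer for 1 h RT; beads washed; kinase eluted with 0.5 μM non-biotinylated ligand; eluate quantified by qPCR.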
# [2] = tested on: SYK; details: at 1 μM
# Summary of the method: as §1
# [3] = tested on: PDGFRB; details: at 1 μM
# Summary of the method: as §1
# [4] = tested on: MERTK; details: at 1 μM
# Summary of the method: as §1
# [5] = tested on: FLT1; details: at 1 μM
# Summary of the method: as §1
# [6] = tested on: FRK; details: at 1 μM
# Summary of the method: as §1
# [7] = tested on: KIT(V559D); details: at 1 μM
# Summary of the method: as §1
# [8] = tested on: FLT3(K663Q); details: at 1 μM
# Summary of the method: as §1
# [9] = tested on: ITK; details: at 1 μM
# Summary of the method: as §1
# [10] = tested on: CSF1R-autoinhibited; details: at 1 μM
# Summary of the method: as §1
# [11] = tested on: EPHA7; details: at 1 μM
# Summary of the method: as §1
# [12] = tested on: EPHB6; details: at 1 μM
# Summary of the method: as §1
# [13] = tested on: INSRR; details: at 1 μM
# Summary of the method: as §1
# [14] = tested on: FLT3(D835V); details: at 1 μM
# Summary of the method: as §1
# [15] = tested on: ALK(C1156Y); details: at 1 μM
# Summary of the method: as §1
# [16] = tested on: ABL1(Q252H)-nonphosphorylated; details: at 1 μM
# Summary of the method: as §1
# [17] = tested on: ZAP70; details: at 1 μM
# Summary of the method: as §1
# [18] = tested on: FLT3(N841I); details: at 1 μM
# Summary of the method: as §1
# [19] = tested on: EPHA8; details: at 1 μM
# Summary of the method: as §1
# [20] = tested on: KIT(A829P); details: at 1 μM
# Summary of the method: as §1
# [21] = tested on: ABL1(F317L)-nonphosphorylated; details: at 1 μM
# Summary of the method: as §1
# [22] = tested on: EGFR(L858R); details: at 1 μM
# Summary of the method: as §1
# [23] = tested on: TRKB; details: at 1 μM
# Summary of the method: as §1
# [24] = tested on: ABL1(T315I)-phosphorylated; details: at 1 μM
# Summary of the method: as §1
# [25] = tested on: ABL1(F317L)-phosphorylated; details: at 1 μM
# Summary of the method: as §1
# [26] = tested on: EPHB1; details: at 1 μM
# Summary of the method: as §1
# [27] = tested on: CTK; details: at 1 μM
# Summary of the method: as §1
# [28] = tested on: EPHA1; details: at 1 μM
# Summary of the method: as §1
# [29] = tested on: EPHB3; details: at 1 μM
# Summary of the method: as §1
# [30] = tested on: FLT3-autoinhibited; details: at 1 μM
# Summary of the method: as §1
# [31] = tested on: ABL1(H396P)-nonphosphorylated; details: at 1 μM
# Summary of the method: as §1
# [32] = tested on: BTK; details: at 1 μM
# Summary of the method: as §1
# [33] = tested on: FGFR3(G697C); details: at 1 μM
# Summary of the method: as §1
# [34] = tested on: MET(M1250T); details: at 1 μM
# Summary of the method: as §1
# [35] = tested on: KIT(V559D, T670I); details: at 1 μM
# Summary of the method: as §1
# [36] = tested on: EGFR(L861Q); details: at 1 μM
# Summary of the method: as §1
# [37] = tested on: JAK2(JH1domain-catalytic); details: for % Ctrl: JAK2(JH1domain-catalytic), at 1 μM; for Kd: read-out: JAK2(JH1 domain-catalytic) Kd
# Summary of the method: as §1
# [38] = tested on: JAK1(JH1domain-catalytic); details: for % Ctrl: JAK1(JH1domain-catalytic), at 1 μM; for Kd: read-out: JAK1(JH1 domain-catalytic) Kd
# Summary of the method: as §1
# [39] = tested on: TEC; details: at 1 μM
# Summary of the method: as §1
# [40] = tested on: MET(Y1235D); details: at 1 μM
# Summary of the method: as §1
smiles,measurement,setting,value
"C[C@@H]1COCc2nn(C)cc2-c2cc(Cl)c3c(c2)/C(=C/c2[nH]ccc2C(=O)N1)C(=O)N3 [Cpd. 4, [3a(4)Z,10R]-20-chloro-10,15-dimethyl-10,11,13,15-tetrahydro-2H-1,17-(ethanediylidene)pyrazolo[4,3-m]dipyrrolo[3,2-f:3′,4′-i][1,4]oxazacyclopentadecine-3,8(5H,9H)-dione]",% Ctrl,[1],100%
same,% Ctrl,[2],64%
same,% Ctrl,[3],100%
same,% Ctrl,[4],48%
same,% Ctrl,[5],92%
same,% Ctrl,[6],78%
same,% Ctrl,[7],100%
same,% Ctrl,[8],90%
same,% Ctrl,[9],99%
same,% Ctrl,[10],75%
same,% Ctrl,[11],100%
same,% Ctrl,[12],86%
same,% Ctrl,[13],91%
same,% Ctrl,[14],75%
same,% Ctrl,[15],100%
same,% Ctrl,[16],86%
same,% Ctrl,[17],56%
same,% Ctrl,[18],78%
same,% Ctrl,[19],82%
same,% Ctrl,[20],92%
same,% Ctrl,[21],96%
same,% Ctrl,[22],95%
same,% Ctrl,[23],100%
same,% Ctrl,[24],35%
same,% Ctrl,[25],90%
same,% Ctrl,[26],97%
same,% Ctrl,[27],76%
same,% Ctrl,[28],71%
same,% Ctrl,[29],93%
same,% Ctrl,[30],93%
same,% Ctrl,[31],82%
same,% Ctrl,[32],78%
same,% Ctrl,[33],79%
same,% Ctrl,[34],100%
same,% Ctrl,[35],94%
same,% Ctrl,[36],89%
same,% Ctrl,[37],57%
same,Kd,[37],1.8 µM
same,% Ctrl,[38],94%
same,Kd,[38],> 10 µM
same,% Ctrl,[39],99%
same,% Ctrl,[40],100%
"Cc1cc2c([nH]1)/C=C1\C(=O)Nc3ccc(cc31)-c1c(nn(C)c1C)OCCCN(C)C2=O [Cpd. 1, [3a(4)Z]-6,9,15,16-tetramethyl-9,10,11,12-tetrahydro-15H-1,17-(ethanediylidene)pyrazolo[4,3-n]dipyrrolo[3,2-g:3′,4′-j][1,5]oxazacyclopentadecine-3,8(2H,5H)-dione]",% Ctrl,[1],89%
same,% Ctrl,[2],98%
same,% Ctrl,[3],100%
same,% Ctrl,[4],78%
same,% Ctrl,[5],97%
same,% Ctrl,[6],93%
same,% Ctrl,[7],91%
same,% Ctrl,[8],80%
same,% Ctrl,[9],89%
same,% Ctrl,[10],82%
same,% Ctrl,[11],91%
same,% Ctrl,[12],100%
same,% Ctrl,[13],94%
same,% Ctrl,[14],61%
same,% Ctrl,[15],100%
same,% Ctrl,[16],87%
same,% Ctrl,[17],94%
same,% Ctrl,[18],97%
same,% Ctrl,[19],100%
same,% Ctrl,[20],93%
same,% Ctrl,[21],83%
same,% Ctrl,[22],100%
same,% Ctrl,[23],87%
same,% Ctrl,[24],95%
same,% Ctrl,[25],86%
same,% Ctrl,[26],87%
same,% Ctrl,[27],58%
same,% Ctrl,[28],100%
same,% Ctrl,[29],99%
same,% Ctrl,[30],92%
same,% Ctrl,[31],87%
same,% Ctrl,[32],94%
same,% Ctrl,[33],100%
same,% Ctrl,[34],83%
same,% Ctrl,[35],93%
same,% Ctrl,[36],82%
same,% Ctrl,[37],98%
same,Kd,[37],> 10 µM
same,% Ctrl,[38],82%
same,Kd,[38],> 10 µM
same,% Ctrl,[39],91%
same,% Ctrl,[40],98%
